For the data set the following is noted: for aqueous solubility: pH 6.8.

Converted amounts (≈) assume the structure as drawn. A value given as a limit tells only on which side of the number the result lay.

With `COc1nc2c(cc1CNC(=O)N1CCC[C@@H]1CO)C(=O)N(C1CCCC1)C2`, the MDR1-MDCK efflux ratio was found to be 78.1; the intrinsic clearance, human liver microsomes was 8.55 mL/min/kg; the intrinsic clearance, rat liver microsomes worked out at 69.1 mL/min/kg.

Broadly, the aqueous solubility is the concentration that dissolves in the medium under given conditions. `Cn1c(=O)n(C2CCCC2)c(=O)c2c(F)cccc21`: the MDR1-MDCK efflux ratio was determined as 0.69; the intrinsic clearance, human liver microsomes amounted to 23.3 mL/min/kg; the intrinsic clearance, rat liver microsomes is 415 mL/min/kg; the aqueous solubility came out at 26 µg/mL (≈ 99 µM).

Take `CC(=O)Nc1cccc(OCC(=O)N2CCCCC2)c1`: the MDR1-MDCK efflux ratio came out at 11.9; the intrinsic clearance, human liver microsomes was at most 4.74 mL/min/kg; the intrinsic clearance, rat liver microsomes was 126 mL/min/kg; the aqueous solubility is 42.4 µg/mL (≈ 153 µM).

Consider `c1cnc2c(Oc3ncnc4sccc34)cccc2c1`, for which the intrinsic clearance, human liver microsomes is 44.3 mL/min/kg and the intrinsic clearance, rat liver microsomes worked out at 244 mL/min/kg.

For the molecule `Cc1cccc(NC(=O)CN2CCCN(c3ccc(C(F)(F)F)cn3)CC2)c1`, the MDR1-MDCK efflux ratio is 0.951; the intrinsic clearance, human liver microsomes was found to be 150 mL/min/kg; the intrinsic clearance, rat liver microsomes stood at 724 mL/min/kg; the aqueous solubility is 25.7 µg/mL (≈ 65.5 µM).

Take `CN(Cc1ccccc1Br)C(=O)Nc1ccc(C(=O)N2CCCC2)cc1`: the MDR1-MDCK efflux ratio came to 9.97; the intrinsic clearance, human liver microsomes was determined as 14.6 mL/min/kg; the intrinsic clearance, rat liver microsomes was 767 mL/min/kg; the aqueous solubility turned out to be 69.4 µg/mL (≈ 167 µM).

Take `COc1cc(Nc2c(C#N)cnc3cc(OCCCN4CCN(C)CC4)c(OC)cc23)c(Cl)cc1Cl`: the MDR1-MDCK efflux ratio was 123.

For `Cc1cc(N2CCCCC2)nc(CNC(=O)c2ccccc2Cl)n1`, the MDR1-MDCK efflux ratio is 0.671; the intrinsic clearance, human liver microsomes is 56.5 mL/min/kg; the intrinsic clearance, rat liver microsomes was 1000 mL/min/kg; the aqueous solubility was 65.2 µg/mL (≈ 189 µM).

As to `O=C(Nc1nc2cccc(-c3ccc(CN4CCS(=O)(=O)CC4)cc3)n2n1)C1CC1`, the MDR1-MDCK efflux ratio was 136; the fraction unbound, human plasma was determined as 0.48; the fraction unbound, rat plasma stood at 0.4; the intrinsic clearance, human liver microsomes was at most 4.74 mL/min/kg. Moreover, the intrinsic clearance, rat liver microsomes is 19.4 mL/min/kg and the aqueous solubility turned out to be 47.1 µg/mL (≈ 111 µM).

For the molecule `CSc1ccc(-c2ccc3n(c2=O)C[C@@H]2CNC[C@H]3C2)cc1`, the MDR1-MDCK efflux ratio is 1.42; the intrinsic clearance, human liver microsomes was 5.01 mL/min/kg; the intrinsic clearance, rat liver microsomes is 19.3 mL/min/kg; the aqueous solubility turned out to be 51.2 µg/mL (≈ 164 µM).

For the molecule `COc1ccc(OC)c(S(=O)(=O)NCCC(=O)Nc2ccccc2C)c1`, the MDR1-MDCK efflux ratio was determined as 19.9; the intrinsic clearance, human liver microsomes is 51.5 mL/min/kg; the intrinsic clearance, rat liver microsomes is 616 mL/min/kg.

Regarding `Cc1nc(CC2CCN(S(=O)(=O)c3cn(C)cn3)CC2)cc(NC2CCCC2)n1`, the MDR1-MDCK efflux ratio worked out at 37.4; the intrinsic clearance, human liver microsomes turned out to be 9.96 mL/min/kg; the intrinsic clearance, rat liver microsomes was found to be 90.9 mL/min/kg; the aqueous solubility worked out at 59.5 µg/mL (≈ 142 µM).

`O=C(CCc1cccs1)Nc1ccc(N2CCCC2)cn1`: the aqueous solubility turned out to be 1.18 µg/mL (≈ 3.91 µM).

As to `Cc1cnc(C(C)(C)NCC(=O)N(C)C)s1`, the MDR1-MDCK efflux ratio was 1.86; the intrinsic clearance, human liver microsomes is at most 4.74 mL/min/kg; the intrinsic clearance, rat liver microsomes is 20.9 mL/min/kg.

In turn, `O=C(NCCc1c[nH]c2cccc(C3(O)CCOCC3)c12)c1cccs1` gave an aqueous solubility of 65.5 µg/mL (≈ 177 µM).

`c1ccc(-c2noc(C3CCNCC3)n2)nc1` came in with an intrinsic clearance, human liver microsomes of at most 4.74 mL/min/kg and an intrinsic clearance, rat liver microsomes of at most 10.7 mL/min/kg.

For `CN(C)c1cc(CNC(=O)C2CCOCC2)ccn1`, the MDR1-MDCK efflux ratio amounted to 4.87; the intrinsic clearance, human liver microsomes was at most 4.74 mL/min/kg; the intrinsic clearance, rat liver microsomes was at most 10.7 mL/min/kg; the aqueous solubility is 41.2 µg/mL (≈ 156 µM).

Molecule `Cc1ccnc2[nH]c(CSCc3ccccc3)nc12` had an intrinsic clearance, human liver microsomes of 84.4 mL/min/kg and an intrinsic clearance, rat liver microsomes of 647 mL/min/kg.

As to `Cc1nc(N2CCOc3ccccc3C2)c2cnn(C)c2n1`, the MDR1-MDCK efflux ratio was determined as 0.513; the intrinsic clearance, human liver microsomes was 62.7 mL/min/kg; the intrinsic clearance, rat liver microsomes came out at 272 mL/min/kg; the aqueous solubility came out at 42.8 µg/mL (≈ 145 µM).

For `Cc1ccc(C(=O)Nc2ccccc2C#N)cc1`, the intrinsic clearance, human liver microsomes was 88.2 mL/min/kg; the intrinsic clearance, rat liver microsomes came to 173 mL/min/kg; the aqueous solubility is 10.4 µg/mL (≈ 43.9 µM).

For the molecule `Cc1nn(C)c2ncc(CNc3ccon3)cc12`, the MDR1-MDCK efflux ratio came to 0.858; the intrinsic clearance, human liver microsomes was at most 4.74 mL/min/kg; the intrinsic clearance, rat liver microsomes was 14.2 mL/min/kg.

Consider `COc1cc(OC)cc(N(CCNC(C)C)c2ccc3ncc(-c4cnn(C)c4)nc3c2)c1`, for which the MDR1-MDCK efflux ratio came to 106; the intrinsic clearance, human liver microsomes is 17.6 mL/min/kg; the intrinsic clearance, rat liver microsomes was 790 mL/min/kg.

Molecule `Cc1cccc2c(=O)n(CCC(=O)Nc3cc(C4CC4)n[nH]3)cnc12` yielded an aqueous solubility of 8.26 µg/mL (≈ 24.5 µM).

With `Cc1nn(C(F)F)c(C)c1CC(=O)NCCNC(C)(C)C`, the MDR1-MDCK efflux ratio is 20.6; the intrinsic clearance, human liver microsomes is at most 4.74 mL/min/kg; the intrinsic clearance, rat liver microsomes stood at 253 mL/min/kg.

For `CC(=O)Nc1ncc(CN2CCCC[C@@H]2C)s1`, the MDR1-MDCK efflux ratio was determined as 1.31; the fraction unbound, human plasma was determined as 1; the fraction unbound, rat plasma is 0.838; the intrinsic clearance, human liver microsomes was at most 4.74 mL/min/kg. The intrinsic clearance, rat liver microsomes was found to be 14.1 mL/min/kg.

`CC1(COc2ccc3c(c2)ncn3-c2ccc3cccc(OS(=O)(=O)C(F)(F)F)c3n2)COC1` came in with an aqueous solubility of 0.4 µg/mL (≈ 0.811 µM).

As to `N=C(N)NCCCCC(=O)Nc1ccc(C[C@H](NC(=O)[C@@H]2CCCN2S(=O)(=O)c2ccccc2)C(=O)O)cc1`, the intrinsic clearance, human liver microsomes is at most 4.74 mL/min/kg and the intrinsic clearance, rat liver microsomes was at most 10.7 mL/min/kg.

As to `N#Cc1cc2c(nc1SCc1cccnc1)CCCCCC2`, the MDR1-MDCK efflux ratio amounted to 0.913 and the aqueous solubility stood at 0.22 µg/mL (≈ 0.711 µM).

Take `O=C(NCCc1cn2c(n1)CCCC2)c1ccccn1`: the MDR1-MDCK efflux ratio stood at 12.2; the intrinsic clearance, human liver microsomes was at most 4.74 mL/min/kg; the intrinsic clearance, rat liver microsomes was determined as 26.7 mL/min/kg; the aqueous solubility was 47.6 µg/mL (≈ 176 µM).

Take `Cn1c(=O)c(C(=O)CSc2nc3ccccc3n2C)c(N)n(Cc2ccccc2)c1=O`: the MDR1-MDCK efflux ratio is 13; the intrinsic clearance, human liver microsomes is 839 mL/min/kg; the intrinsic clearance, rat liver microsomes came out at 2400 mL/min/kg.

As to `O=C(O)c1cc(/N=N/c2ccc(S(=O)(=O)Nc3ccccn3)cc2)ccc1O`, the MDR1-MDCK efflux ratio is 0.459; the intrinsic clearance, human liver microsomes is at most 4.74 mL/min/kg; the intrinsic clearance, rat liver microsomes stood at 50.5 mL/min/kg; the aqueous solubility amounted to 54.5 µg/mL (≈ 137 µM).

For the molecule `CN(Cc1ccc(N)nc1)c1nc(C(F)(F)F)cs1`, the MDR1-MDCK efflux ratio was determined as 0.598; the intrinsic clearance, human liver microsomes is at most 4.74 mL/min/kg; the intrinsic clearance, rat liver microsomes came to 116 mL/min/kg.

As to `COC(=O)N1CCCN(C(=O)C(=O)Nc2cccc(C(C)C)c2)CC1`, the MDR1-MDCK efflux ratio was determined as 1.07; the intrinsic clearance, human liver microsomes was 66.2 mL/min/kg; the intrinsic clearance, rat liver microsomes was 1220 mL/min/kg; the aqueous solubility was 58.4 µg/mL (≈ 168 µM).

For the molecule `Cc1nnnn1CCCc1ccccc1`, the aqueous solubility was 5.67 µg/mL (≈ 28 µM).

Turning to `COc1ccc(CN2CCC(c3cc[nH]n3)CC2)cn1`, the intrinsic clearance, human liver microsomes is at most 4.74 mL/min/kg and the intrinsic clearance, rat liver microsomes was determined as 103 mL/min/kg.

The molecule `NCCC(=O)Nc1ccc2[nH]c(=O)[nH]c2c1` had an aqueous solubility of 143 µg/mL (≈ 648 µM).

For `Cc1cc(C(=O)NCC2CCN(c3ccc4ccccc4n3)CC2)cnc1C`, the MDR1-MDCK efflux ratio stood at 2.19; the intrinsic clearance, human liver microsomes was determined as 58.1 mL/min/kg; the intrinsic clearance, rat liver microsomes worked out at 477 mL/min/kg.

Molecule `CCOc1ccc(Nc2ncccc2C#N)cc1` came in with an intrinsic clearance, human liver microsomes of 99.6 mL/min/kg; an intrinsic clearance, rat liver microsomes of 319 mL/min/kg; an aqueous solubility of 9.23 µg/mL (≈ 38.6 µM).

On to `c1ccc(OCCN2CCN(c3ncccn3)CC2)cc1`, for which the MDR1-MDCK efflux ratio was determined as 0.534; the intrinsic clearance, human liver microsomes turned out to be 126 mL/min/kg; the intrinsic clearance, rat liver microsomes stood at 516 mL/min/kg.

Consider `CC(C)c1nc2c(n1C)CCN(C(=O)c1cccc(C(F)(F)F)c1F)C2`, for which the MDR1-MDCK efflux ratio came out at 8.01; the intrinsic clearance, human liver microsomes worked out at 32.7 mL/min/kg; the intrinsic clearance, rat liver microsomes came to 238 mL/min/kg; the aqueous solubility is 60.8 µg/mL (≈ 165 µM).

With `NC(=O)c1ccccc1NC(=O)CN1CCCC(c2nc3ccccc3o2)C1` (stereo not drawn), the MDR1-MDCK efflux ratio amounted to 8; the intrinsic clearance, human liver microsomes stood at 126 mL/min/kg; the intrinsic clearance, rat liver microsomes was 827 mL/min/kg; the aqueous solubility amounted to 10 µg/mL (≈ 26.4 µM).

With `CCOc1cccc(NS(C)(=O)=O)n1`, the MDR1-MDCK efflux ratio came out at 0.969; the intrinsic clearance, human liver microsomes is at most 4.74 mL/min/kg; the intrinsic clearance, rat liver microsomes was at most 10.7 mL/min/kg.

As to `Cc1cc(C(F)(F)F)nc(CCNC(=O)N(C)Cc2ccncc2C)n1`, the MDR1-MDCK efflux ratio worked out at 52; the intrinsic clearance, human liver microsomes was 198 mL/min/kg; the intrinsic clearance, rat liver microsomes is 734 mL/min/kg.

Take `CN(C)C1=N[C@@H]2[C@@H](O)[C@H](O)[C@@H](CO)O[C@@H]2S1`: the MDR1-MDCK efflux ratio was found to be 0.274; the intrinsic clearance, human liver microsomes was at most 4.74 mL/min/kg; the intrinsic clearance, rat liver microsomes is at most 10.7 mL/min/kg; the aqueous solubility was found to be 36.7 µg/mL (≈ 148 µM).

Molecule `CC(=O)Nc1ccc(S(=O)(=O)NC2=NCN(Cc3ccccc3)CN2)cc1` returned an intrinsic clearance, human liver microsomes of at most 4.74 mL/min/kg; an intrinsic clearance, rat liver microsomes of at most 10.7 mL/min/kg; an aqueous solubility of 61 µg/mL (≈ 157 µM).

For `COc1ccc(OC)c(N/C=C2\C(=O)Oc3ccccc3C2=O)c1`, the aqueous solubility amounted to 0.7 µg/mL (≈ 2.15 µM).

As to `Cc1ccc2c(CC(=O)NCc3cccs3)coc2c1`, the MDR1-MDCK efflux ratio turned out to be 0.547; the intrinsic clearance, human liver microsomes amounted to 122 mL/min/kg; the intrinsic clearance, rat liver microsomes is 2520 mL/min/kg; the aqueous solubility was 6.12 µg/mL (≈ 21.4 µM).

For the molecule `Cc1ccc(C(=O)NCC#Cc2ccccc2)cn1`, the MDR1-MDCK efflux ratio is 0.579; the intrinsic clearance, human liver microsomes is at most 4.74 mL/min/kg; the intrinsic clearance, rat liver microsomes came to 18.8 mL/min/kg; the aqueous solubility was 44.5 µg/mL (≈ 178 µM).

`CCSCc1nc(N)c2ccccc2n1`: the MDR1-MDCK efflux ratio came out at 0.681; the intrinsic clearance, human liver microsomes is 30.3 mL/min/kg; the intrinsic clearance, rat liver microsomes amounted to 121 mL/min/kg; the aqueous solubility turned out to be 30.4 µg/mL (≈ 139 µM).

These data come from the Biogen ADME set (Fang et al. 2023).
